The record followed here is US7229986B2, “Melanin-concentrating hormone antagonist” (Takeda Pharmaceutical Company Ltd., priority 2000, dated 2007).

Counter-ions that a name gives are not always drawn.

The first data set has as its target SLC-1 (UniProt Q99705). Briefly: Determination of antagonist activity using GTPγS binding assay. The data set is classed as biochemical, human, rat. As to conditions: inhibition of MCH-stimulated [35S]-GTPγS binding, SLC-1 expressing CHO cell membrane fractions, 25° C., 1 hour. As to the method: Membrane fraction was prepared by the following method, using the human SLC-1 expressing CHO cell clone 57 obtained in Reference Example 1-10, and the rat SLC-1 expressing CHO cell clone 44 obtained in Reference Example 1-4.
The human and rat SLC-1 expressing CHO cells (1×10^8) were scraped in buffer saline phosphate (pH 7.4) to which 5 mM EDTA (ethylenediaminetetraacetic acid) had been added, and centrifuged. 10 ml of homogenized buffer (10 mM NaHCO3, 5 mM EDTA, pH 7.5) was added to the cell pellets, and they were homogenized using a Polytron homogenizer. […]
After this reaction mixture was allowed to react at 25° C. for 1 hour under stirring, it was filtered under vacuum using a glass filter (GF-C), then the filter was washed 3 times with 300 μl of washing solution (50 mM Tris-HCl buffer solution pH 7.5). 50 ml of liquid scintillator was added to the glass filter, and residual radioactivity was determined using a liquid scintillation counter.
The IC50 value of the compound was calculated from the binding inhibition rate (%), based on the definition that the binding inhibition rate (%)=(radioactivity when compound and MCH were added−radioactivity when DMSO solution was added)/(radioactivity when MCH was added−radioactivity when DMSO solution was added)×100.
The term IC50 denotes the concentration needed to halve the response being measured. Lower therefore signals higher potency. For the compound `CN(C)CCCc1ccc2c(c1)CCCN2C(=O)c1ccc(-c2ccccc2)cc1` [Example 1, 3-[1-([1,1′-Biphenyl]-4-ylcarbonyl)-1,2,3,4-tetrahydro-6-quinolinyl]-N,N-dimethyl-1-propanamine], the IC50 was found to be 0.3 µM. Same read-out and setting: in the case of `CN(C)C/C=C/c1ccc2c(c1)CCCN2C(=O)c1ccc(-c2ccc(Cl)cc2)cc1` [Example 5, (E)-3-[1-[(4′-Chloro[1,1-biphenyl]-4-yl)carbonyl]-1,2,3,4-tetrahydro-6-quinolinyl]-N,N-dimethyl-2-propen-1-amine] it was 0.02 µM.

Tested on in the next data set: not given
Experiment: not given
Conditions: not given
For orientation: melting point means the temperature, or range, at which the solid turns liquid. Compound `CCCN(CCC)CCc1ccc2c(c1)N(Cc1cccc3ccccc13)CCO2.Cl` returned a melting point of 177 to 178 °C. The same measure, in the same setting: in the case of `CN1CCc2ccc(C(=O)CCCN3CCC(c4ccc(Cl)cc4)CC3)cc2CC1` (as salt: HCl) (hydrate or solvate) [Example 35, 4-[4-(4-Chlorophenyl)-1-piperidinyl]-1-(3-methyl-2,3,4,5-tetrahydro-1H-3-benzazepin-7-yl)-1-butanone] it was 248 to 252 °C (dec.). Still for that read-out and setting: in the case of `O=C(CCCN1CCC(c2ccc(Cl)cc2)CC1)c1ccc2c(c1)CCNCC2` (as salt: HCl) [Example 34, 4-[4-(4-Chlorophenyl)-1-piperidinyl]-1(2,3,4,5-tetrahydro-1H-3-benzazepin-7-yl)-1-butanone] it was 243 to 247 °C (dec.); in that of `CN(C)C/C=C/c1ccc2c(c1)N(C(=O)c1ccc(-c3ccccc3)cc1)CCCC2` (as salt: hydrochloride) [Example 2, (E)-3-[1-([1,1′-Biphenyl]-4-ylcarbonyl)-2,3,4,5-tetrahydro-1H-1-benzazepin-8-yl]-N,N-dimethyl-2-propen-1-amine hydrochloride], 112 to 113 °C; in that of `CN(C)CCCc1ccc2c(c1)N(C(=O)c1ccc(-c3ccccc3)cc1)CCCC2` (as salt: hydrochloride) [Example 3, 3-[1-([1,1′-Biphenyl]-4-ylcarbonyl)-2,3,4,5-tetrahydro-1H-1-benzazepin-8-yl]-N,N-dimethyl-1-propanamine hydrochloride], 84 to 86 °C. The same measure, in the same setting: the value for `CCCN(CCC)CCc1ccc2c(c1)N(S(=O)(=O)c1ccc(Cl)cc1)CCO2` (as salt: succinate) [Example 137, 4-(4-Chlorobenzenesulfonyl)-3,4-dihydro-6-[2-(N,N-dipropylamino)ethyl]-2H-1,4-benzoxazine succinate] was 130 to 133 °C; that for `CN(C)CCCc1ccc2c(c1)CCCN2C(=O)c1ccc(-c2ccccc2)cc1` [Example 1, 3-[1-([1,1′-Biphenyl]-4-ylcarbonyl)-1,2,3,4-tetrahydro-6-quinolinyl]-N,N-dimethyl-1-propanamine] was 100 to 101 °C; that for `CN(C)C/C=C/c1ccc2c(c1)CCCN2C(=O)c1ccc(-c2ccc(Cl)cc2)cc1` [Example 5, (E)-3-[1-[(4′-Chloro[1,1-biphenyl]-4-yl)carbonyl]-1,2,3,4-tetrahydro-6-quinolinyl]-N,N-dimethyl-2-propen-1-amine] was 162 to 164 °C.

`O=C(c1ccc(-c2ccc(Cl)cc2)cc1)N1CCCc2cc(/C=C/CN3CCCCC3)ccc21` [Example 6, 1-[(4′-Chloro[1,1-biphenyl]-4-yl)carbonyl]-6-[(E)-3-piperidino-1-propenyl]-1,2,3,4-tetrahydroquinoline] returned a melting point of 141 to 143 °C. For the compound `CN(C)C/C=C/c1ccc2c(c1)CCN2C(=O)c1ccc(-c2ccccc2)cc1` [Example 7, (E)-3-[1-[([1,1′-Biphenyl]-4-yl)carbonyl]-2,3-dihydro-1H-indol-5-yl]-N,N-dimethyl-2-propen-1-amine], the melting point was 174 to 176 °C. On the same count and under the same terms, the value for `COc1ccc(COc2ccc(C(=O)N3CCc4cc(/C=C/CN(C)C)ccc43)cc2)cc1` [Example 9, (E)-3-[1-[4-[(4-Methoxybenzyl)oxy]benzoyl]-2,3-dihydro-1H-indol-5-yl]-N,N-dimethyl-2-propen-1-amine] was 164 to 166 °C; that for `O=C(CCC(=O)N1CCC(c2ccc(Cl)cc2)CC1)c1ccc2c(c1)CCN(C(=O)C(F)(F)F)CC2` [Example 14, 4-[4-(4-Chlorophenyl)-1-piperidinyl]-4-oxo-1-[3-(trifluoroacetyl)-2,3,4,5-tetrahydro-1H-3-benzazepin-7-yl]-1-butanone] was 131 to 132 °C; that for `O=C(CCC(=O)N1CCC(c2ccc(Cl)cc2)CC1)c1ccc2c(c1)CCNCC2` [Example 15, 4-[4-(4-Chlorophenyl)-1-piperidinyl]-4-oxo-1-(2,3,4,5-tetrahydro-1H-3-benzazepin-7-yl)-1-butanone] was 148 to 149 °C.

`CN1CCc2ccc(C(=O)CCC(=O)N3CCC(c4ccc(Cl)cc4)CC3)cc2CC1` [Example 16, 4-[4-(4-Chlorophenyl)-1-piperidinyl]-4-oxo-1-(3-methyl-2,3,4,5-tetrahydro-1H-3-benzazepin-7-yl)-1-butanone] displayed a melting point of 143 to 145 °C.

Regarding `O=C(CCC(=O)N1CCC(c2ccccc2)CC1)c1ccc2c(c1)CCN(C(=O)C(F)(F)F)CC2` [Example 31, 4-Oxo-4-(phenyl-1-piperidinyl)-1-[3-(trifluoroacetyl)-2,3,4,5-tetrahydro-1H-3-benzazepin-7-yl]-1-butanone], the melting point was in the range of 132 to 133 °C. The same measure, in the same setting: the value for `O=C(CCC(=O)N1CCC(c2ccccc2)CC1)c1ccc2c(c1)CCNCC2` [Example 32, 4-Oxo-4-(phenyl-1-piperidinyl)-1-(2,3,4,5-tetrahydro-1H-3-benzazepin-7-yl)-1-butanone] was 114 °C. Still for that read-out and setting: the value for `CCCN(CCC)C(=O)Cc1ccc2c(c1)NC(=O)CO2` [Example 133, N,N-Dipropyl-(3,4-dihydro-2H-1,4-benzoxazine-3-oxo-6-yl) acetamide] was 121 to 122 °C; that for `O=C(CCC(=O)N1CCC(c2ccc(Cl)cc2)CC1)c1ccc2c(c1)CCN(CC1CCCO1)CC2` (stereo not shown) [Example 194, 4-[4-(4-Chlorophenyl)-1-piperidinyl]-4-oxo-1-[3-(tetrahydro-2-furanylmethyl)-2,3,4,5-tetrahydro-1H-3-benzazepin-7-yl]-1-butanone] was 123 to 125 °C. Regarding `O=C(CCC(=O)N1CCC(c2ccc(Cl)cc2)CC1)c1ccc2c(c1)CCN(C1CCCCC1)CC2` [Example 195, 4-[4-(4-Chlorophenyl)-1-piperidinyl]-1-(3-cyclohexyl-2,3,4,5-tetrahydro-1H-3-benzazepin-7-yl)-4-oxo-1-butanone], the melting point fell in the range of 128 to 130 °C.

The compound `O=C(CCCC(=O)N1CCC(c2ccc(Cl)cc2)CC1)c1ccc2c(c1)CCNCC2` [Example 205, 5-[4-(4-Chlorophenyl)-1-piperidinyl]-5-oxo-1-(2,3,4,5-tetrahydro-1H-3-benzazepin-7-yl)-1-pentanone] registered a melting point of 112 to 113 °C.
